Reference: patent US8623859B2, “Bradykinin B1 antagonists” (Evotec AG, priority 2008, dated 2014)
Counter-ions that a name gives are not always drawn.

Target: T1, human B1 (Homo sapiens, UniProt P46663)
T1 construct: host or cells: CHO-K1
T1 sequence (P46663 1-353): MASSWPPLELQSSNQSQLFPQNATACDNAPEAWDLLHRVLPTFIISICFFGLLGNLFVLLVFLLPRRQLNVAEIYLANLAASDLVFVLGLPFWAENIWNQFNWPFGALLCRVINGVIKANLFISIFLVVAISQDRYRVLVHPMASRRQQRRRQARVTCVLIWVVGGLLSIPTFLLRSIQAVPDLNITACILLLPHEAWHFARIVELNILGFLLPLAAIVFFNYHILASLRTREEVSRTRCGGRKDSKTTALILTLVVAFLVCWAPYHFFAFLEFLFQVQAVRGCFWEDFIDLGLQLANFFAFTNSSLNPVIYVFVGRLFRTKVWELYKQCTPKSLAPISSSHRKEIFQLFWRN
Experiment: Calcium flux assay for Bradykinin B1 antagonist, CHO-K1 cell line expressing human B1
Format: cell-based
Details: CHO-K1 cells expressing human B1, agonist Lys-(Des-Arg)-Bradykinin, read-out: Potency (IC50 value against human B1)
In short: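 CHO-K1 cells expressing human B1, loaded with 5 μM Fluo-4AM (2 h, 37° C) in HEPES buffer pH 7.4 with probenecid and 0.1% BSA, were preincubated 30 min at 25° C with compound (8 concentrations, triplicate, 1% DMSO) before B1 agonist addition. Ca2+ fluorescence monitored at 538 nm; background-normalized integrated values plotted against log antagonist concentration.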

SMILES	IC50
COc1cc(C)c(S(=O)(=O)N(C)Cc2nc(C(=O)N(C)Cc3ccc(CN4CCC(NC(C)=O)C4)cc3)co2)c(C)c1 (stereo not shown) [Ex 170, N-(4-{[3-(Acetylamino)pyrrolidin-1-yl]methyl}benzyl)-2-({[(4-methoxy-2,6-dimethylphenyl)sulfonyl](methyl)amino}methyl)-N-methyl-1,3-oxazole-4-carboxamide]	10 to 100 nM
COc1cc(C)c(S(=O)(=O)N(C)Cc2cc(C(=O)NCCc3ccc(C4=N[C@@H]5CCCC[C@H]5N4)cc3)co2)c(C)c1 [Ex 36, N-(2-{4-[(3aR,7aR)-3a,4,5,6,7,7a-hexahydro-1H-benzimidazol-2-yl]phenyl}ethyl)-5-({[(4-methoxy-2,6-dimethylphenyl)sulfonyl](methyl)amino}methyl)furan-3-carboxamide]	10 to 100 nM
COc1cc(C)c(S(=O)(=O)N(Cc2nc(C(=O)N3CC4CCN(Cc5ccc(OC)nc5)CC4C3)co2)C2CC2)c(C)c1 (stereo not shown) [Ex 210, N-Cyclopropyl-4-methoxy-N-{[4-({5-[(6-methoxypyridin-3-yl)methyl]octahydro-2H-pyrrolo[3,4-c]pyridin-2-yl}carbonyl)-1,3-oxazol-2-yl]methyl}-2,6-dimethylbenzenesulfonamide trifluoroacetate]	10 to 100 nM
COc1cc(C)c(S(=O)(=O)N(C)Cc2nc(C(=O)N(C)Cc3ccc(CN4CCC(O)C4)cc3)co2)c(C)c1 (stereo not shown) [Ex 178, N-{4-[(3-Hydroxypyrrolidin-1-yl)methyl]benzyl}-2-({[(4-methoxy-2,6-dimethylphenyl)sulfonyl](methyl)amino}methyl)-N-methyl-1,3-oxazole-4-carboxamide]	< 10 nM
COc1cc(C)c(S(=O)(=O)N(Cc2nc(C(=O)N(C)Cc3ccc(CN4CC(O)C4)cc3)co2)C2CC2)c(C)c1 [Ex 188, 2-({Cyclopropyl[(4-methoxy-2,6-dimethylphenyl)sulfonyl]amino}methyl)-N-{4-[(3-hydroxyazetidin-1-yl)methyl]benzyl}-N-methyl-1,3-oxazole-4-carboxamide]	10 to 100 nM
COc1cc(C)c(S(=O)(=O)N(C)Cc2nc(C(=O)N(C)Cc3ccc(CN4CCC(C(=O)N(C)C)C4)cc3)co2)c(C)c1 (stereo not shown) [Ex 171, N-(4-{[3-(Dimethylcarbamoyl)pyrrolidin-1-yl]methyl}benzyl)-2-({[(4-methoxy-2,6-dimethylphenyl)sulfonyl](methyl)amino}methyl)-N-methyl-1,3-oxazole-4-carboxamide]	< 10 nM
Cc1cccc(Cl)c1S(=O)(=O)N(Cc1nc(C(=O)N(C)Cc2ccc(CN3CCCC3)cc2)co1)C1CC1 [Ex 220, 2-({[(2-Chloro-6-methylphenyl)sulfonyl](cyclopropyl)amino}methyl)-N-methyl-N-[4-(pyrrolidin-1-ylmethyl)benzyl]-1,3-oxazole-4-carboxamide trifluoroacetate]	100 to 1000 nM
COc1cc(C)c(S(=O)(=O)N(C)Cc2nc(C(=O)N(C)Cc3ccc(CN4CCC(OC)CC4)cc3)co2)c(C)c1 [Ex 167, 2-({[(4-Methoxy-2,6-dimethylphenyl)sulfonyl](methyl)amino}methyl)-N-{4-[(4-methoxypiperidin-1-yl)methyl]benzyl}-N-methyl-1,3-oxazole-4-carboxamide]	< 10 nM
COc1cc(C)c(S(=O)(=O)N(Cc2nc(C(=O)N3CCN(c4cccnc4)CC3)co2)C2CC2)c(C)c1 [Ex 226, N-Cyclopropyl-4-methoxy-2,6-dimethyl-N-({4-[(4-pyridin-3-ylpiperazin-1-yl)carbonyl]-1,3-oxazol-2-yl}methyl)benzenesulfonamide]	100 to 1000 nM
COc1cc(C)c(S(=O)(=O)N(C)Cc2cc(C(=O)NCCc3ccc(C4=NCCN4)cc3)co2)c(CO)c1 [Ex 86, N-{2-[4-(4,5-Dihydro-1H-imidazol-2-yl)phenyl]ethyl}-5-{[{[2-(hydroxymethyl)-4-methoxy-6-methylphenyl]sulfonyl}(methyl)amino]methyl}furan-3-carboxamide trifluoroacetate]	100 to 1000 nM
CN(CCc1ccc(C2=NCCN2)cc1)C(=O)c1coc(CN(C2CC2)S(=O)(=O)c2c(Cl)cccc2Cl)n1 [Ex 213, 2-({Cyclopropyl[(2,6-dichlorophenyl)sulfonyl]amino}methyl)-N-{2-[4-(4,5-dihydro-1H-imidazol-2-yl)phenyl]ethyl}-N-methyl-1,3-oxazole-4-carboxamide trifluoroacetate]	100 to 1000 nM
COc1cc(C)c(S(=O)(=O)N(Cc2cc(C(=O)NCc3ccc(C4=NCCN4)cc3)co2)C2CC2)c(C)c1 [Ex 82, 5-({cyclopropyl[(4-methoxy-2,6-dimethylphenyl)sulfonyl]amino}methyl)-N-[4-(4,5-dihydro-1H-imidazol-2-yl)benzyl]furan-3-carboxamide trifluoroacetate]	100 to 1000 nM
COc1cc(C)c(S(=O)(=O)N(Cc2nc(C(=O)N3CCN(c4ccncc4)CC3)co2)C2CC2)c(C)c1 [Ex 161, N-Cyclopropyl-4-methoxy-2,6-dimethyl-N-({4-[(4-pyridin-4-ylpiperazin-1-yl)carbonyl]-1,3-oxazol-2-yl}methyl)benzenesulfonamide trifluoroacetate]	100 to 1000 nM
COc1cc(C)c(S(=O)(=O)N(Cc2cc(C(=O)N(C)CCc3ccc(C4=NCCN4)cc3)co2)C2CCC2)c(C)c1 [Ex 51, 5-({Cyclobutyl[(4-methoxy-2,6-dimethylphenyl)sulfonyl]amino}methyl)-N-{2-[4-(4,5-dihydro-1H-imidazol-2-yl)phenyl]ethyl}-N-methylfuran-3-carboxamide]	< 10 nM
COc1cc(C)c(S(=O)(=O)N(C)Cc2nnc(C(=O)N(C)Cc3ccc(CN4CCC(N(C)C)C4)cc3)o2)c(C)c1 (stereo not shown) [Ex 285, N-(4-{[3-(Dimethylamino)pyrrolidin-1-yl]methyl}benzyl)-5-({[(4-methoxy-2,6-dimethylphenyl)sulfonyl](methyl)amino}methyl)-N-methyl-1,3,4-oxadiazole-2-carboxamide]	100 to 1000 nM
COc1cc(C)c(S(=O)(=O)N(C)Cc2nsc(C(=O)NCCc3ccc(C4=NCCN4)cc3)n2)c(C)c1 [Ex 63, N-{2-[4-(4,5-dihydro-1H-imidazol-2-yl)phenyl]ethyl}-3-({[(4-methoxy-2,6-dimethylphenyl)sulfonyl](methyl)amino}methyl)-1,2,4-thiadiazole-5-carboxamide]	< 10 nM
COc1cc(C)c(S(=O)(=O)N(C)Cc2cc(C(=O)NCc3ccc(CNCc4ccncc4)cc3)co2)c(C)c1 [Ex 96, 5-({[(4-Methoxy-2,6-dimethylphenyl)sulfonyl](methyl)amino}methyl)-N-(4-{[(pyridin-4-ylmethyl)amino]methyl}benzyl)furan-3-carboxamide trifluoroacetate]	100 to 1000 nM

More lines, now with the values ahead:

IC50	SMILES
100 to 1000 nM	COc1cc(C)c(S(=O)(=O)N(C)Cc2nnc(C(=O)N3CCN(CCCN4CCCC4)CC3)s2)c(C)c1 [Ex 327, 4-Methoxy-N,2,6-trimethyl-N-[(5-{[4-(3-pyrrolidin-1-ylpropyl)piperazin-1-yl]carbonyl}-1,3,4-thiadiazol-2-yl)methyl]benzenesulfonamide]
100 to 1000 nM	COc1cc(C)c(S(=O)(=O)N(C)Cc2cc(C(=O)N3CCC(CN4CCCC4)CC3)co2)c(C)c1 [Ex 41, 4-methoxy-N,2,6-trimethyl-N-[(4-{[4-(pyrrolidin-1-ylmethyl)piperidin-1-yl]carbonyl}furan-2-yl)methyl]benzenesulfonamide]
< 10 nM	COc1cc(C)c(S(=O)(=O)N(C)Cc2nnc(C(=O)N3CCN(Cc4cnc5ccccc5c4)CC3)o2)c(C)c1 [Ex 296, 4-Methoxy-N,2,6-trimethyl-N-[(5-{[4-(quinolin-3-ylmethyl)piperazin-1-yl]carbonyl}-1,3,4-oxadiazol-2-yl)methyl]benzenesulfonamide]
< 10 nM	COc1cc(C)c(S(=O)(=O)N(Cc2nc(C(=O)N3CCN(CC4CCNCC4)CC3)co2)C2CC2)c(C)c1 [Ex 230, N-Cyclopropyl-4-methoxy-2,6-dimethyl-N-[(4-{[4-(piperidin-4-ylmethyl)piperazin-1-yl]carbonyl}-1,3-oxazol-2-yl)methyl]benzenesulfonamide trifluoroacetate]
< 10 nM	COc1cc(C)c(S(=O)(=O)N(Cc2nc(C(=O)N3CCN(CCN4CCCCC4)CC3)co2)C2CC2)c(C)c1 [Ex 194, N-Cyclopropyl-4-methoxy-2,6-dimethyl-N-[(4-{[4-(2-piperidin-1-ylethyl)piperazin-1-yl]carbonyl}-1,3-oxazol-2-yl)methyl]benzenesulfonamide trifluoroacetate]
< 10 nM	COc1cc(C)c(S(=O)(=O)N(C)Cc2nc(C(=O)N3CCN(CCCN4CCCC4)CC3)co2)c(C)c1 [Ex 174, 4-Methoxy-N,2,6-trimethyl-N-[(4-{[4-(3-pyrrolidin-1-ylpropyl)piperazin-1-yl]carbonyl}-1,3-oxazol-2-yl)methyl]benzenesulfonamide]
< 10 nM	COc1cc(C)c(S(=O)(=O)N(Cc2noc(C(=O)N3CCN(C4CCN(C)CC4)CC3)n2)C2CC2)c(C)c1 [Ex 311, N-Cyclopropyl-4-methoxy-2,6-dimethyl-N-[(5-{[4-(1-methylpiperidin-4-yl)piperazin-1-yl]carbonyl}-1,2,4-oxadiazol-3-yl)methyl]benzenesulfonamide]
< 10 nM	COc1cc(C)c(S(=O)(=O)N(Cc2nc(C(=O)N(C)Cc3ccc(CN4CCCC4)nc3)co2)C2CC2)c(C)c1 [Ex 203, 2-({Cyclopropyl[(4-methoxy-2,6-dimethylphenyl)sulfonyl]amino}methyl)-N-methyl-N-{[6-(pyrrolidin-1-ylmethyl)pyridin-3-yl]methyl}-1,3-oxazole-4-carboxamide]
